# Assay results as given in USRE47493E1, “Substituted bicyclic dihydropyrimidinones and their use as inhibitors of neutrophil elastase activity” (Boehringer Ingelheim International GmbH, priority 2014, dated 2019).
# Legend:
# [1] = Assay for the Determination of Metabolic Stability with Human Hepatocytes; assay type: in vitro ADME; details: scaled with well stirred model
# Protocol: Assay for the Determination of Metabolic Stability with Human Hepatocytes
# The metabolic degradation of the test compound is assayed in a human hepatocyte suspension. Human hepatocytes (typically cryopreserved) are incubated in an appropriate buffer system (e.g. Dulbecco's modified eagle medium plus 3.5 μg glucagon/500 mL, 2.5 mg insulin/500 mL and 3.75 mg/500 mL hydrocortison) containing 5% species serum. Following a (typically) […] preincubation in an incubator (37° C., 10% CO2), 5 μl of test compound solution (80 μM; from 2 mM stock solution in DMSO diluted 1:25 with medium) are added into 395 μl hepatocyte suspension (cell density in the range 0.25-5*10^6 cells/mL, typically 1*10^6 cells/mL; final concentration of test compound 1 μM, final DMSO concentration […]). The cells are incubated for six hours (incubator, orbital shaker) and samples (25 μl) are taken at 0, 0.5, 1, 2, 4 and 6 hours. Samples are transferred into acetonitrile and pelleted by centrifugation (5 min). The supernatant is transferred to a new 96-deepwell plate, evaporated under nitrogen and resuspended. The decline of parent compound is analyzed by LC-MS/MS.
# The intrinsic clearance CL_[…] is calculated as follows: CL_[…]=Dose/AUC=(C0/CD)/(AUD+clast/k)*1′000/60 (C0: initial concentration in the incubation [μM], CD: cell density of vital cells [10^6 cells/mL], AUD: area under the data [μM*h], clast: concentration of last data point [μM], k: slope of the regression line for parent decline [h^−1])
# The calculated in vitro hepatic intrinsic clearance can be scaled up to the intrinsic in vivo hepatic clearance and used to predict hepatic in vivo blood clearance (CL) by the use of a is liver model (well stirred model): CL_[…]_INVIVO [ml/min/kg]=(CL_[…] [μL/min/10^6 cells]* hepatocellularity[10^6 cells/g liver]*liver factor[g/kg bodyweight])/1′000 CL[ml/min/kg]=CL_[…]_INVIVO [ml/min/kg]*hepatic blood flow [ml/min/kg]/(CL_[…]_INVIVO [ml/min/kg]+hepatic blood flow [ml/min/kg]) Qh[%]=CL[ml/min/kg]/hepatic blood flow[ml/min/kg]) (Hepatocellularity, human: 120*10^6 cells/g liver; lver factor, human: 25.7 g/kg bodyweight; blood flow, human: 21 ml/(min*kg))
# The predicted human hepatic in vivo blood clearance (CL) of selected compounds in the metabolic stability assay described above are listed in Table 16.
# [2] = Assay for Determination of Aqueous Solubility; assay type: physicochemical; details: McIlvaine buffer pH 6.8, 2.5% DMSO; for Aqueous solubility: 24 h
# Protocol: Assay for Determination of Aqueous Solubility
# The aqueous solubility of a compound is determined by comparing the amount dissolved in aqueous buffer (containing 2.5% DMSO) to the amount dissolved in an acetonitrile/water (1/1) solution. Starting from a 10 mM DMSO stock solution, aliquots are diluted with acetonitrile/water (1/1) and Mcllvaine buffer pH 6.8, respectively. After 24 h of shaking, the solutions or suspensions are filtered and analyzed by LC-UV. The amount dissolved in buffer is compared to the amount dissolved in the acetonitrile/water (1/1) solution. Solubility is measured from 0.001 to 0.125 mg/ml at a DMSO concentration of 2.5%. If more than 90% of the compound is dissolved in buffer, the value is marked with “>”.
# [3] = target: neutrophil elastase in human plasma (Homo sapiens (Human), UniProt P08246); test: Assay for the Determination of Neutrophil Elastase Inhibitory Activity in Human Plasma; assay type: biochemical; details: neutrophil elastase enriched human plasma (zymosan-stimulated blood)
# Chain of neutrophil elastase in human plasma (P08246 30-267): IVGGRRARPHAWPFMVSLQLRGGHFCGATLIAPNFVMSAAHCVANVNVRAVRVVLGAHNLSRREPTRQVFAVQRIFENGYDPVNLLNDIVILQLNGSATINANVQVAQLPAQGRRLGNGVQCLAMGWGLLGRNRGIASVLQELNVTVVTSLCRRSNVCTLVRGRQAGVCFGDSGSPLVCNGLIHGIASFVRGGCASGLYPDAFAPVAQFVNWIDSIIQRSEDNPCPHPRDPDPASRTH
# Protocol: Assay for the Determination of Neutrophil Elastase Inhibitory Activity in Human Plasma
# Citrated blood from human healthy donors is mixed with zymosan suspension and incubated at room temperature. This leads to the stimulation of neutrophils and the release of neutrophil elastase into the plasma. The stimulated blood is centrifuged to generate the neutrophil elastase enriched plasma.
# Preparation of Zymosan Working Solution:
# • single 45 ml blood sample is taken into a 50 ml tube containing citrate (3.13%, 5 mL) and the tube is gently inverted 4 times. • Immediately after blood sampling, zymosan working solution (5 mL) is added. • After the addition of zymosan working solution, the tubes are capped, mixed gently and incubated at 22° C. for 15 min on a shaker at 20 rpm. • Make 10 ml aliquots after the incubation time. • Centrifuge the 15 ml tubes at 800 g for […] at 4° C. in a Jouan centrifuge. • Harvest the plasma and make 1-5 ml aliquots. • Store the plasma at −80° C.
# Various concentrations of the neutrophil elastase inhibitor are incubated with plasma. Subsequently, the enzyme activity is measured using the fluorogenic substrate MeOSuc-Ala-Ala-Pro-Val-AMC (Bachem Cat. No. 1-1270, substrate concentration: 250 μM, pH 7.5, 25 mM TRIS buffer, 250 mM NaCl) in analogous fashion as described for the human neutrophil assay. A dose response curve is generated to calculate the EC50 of the inhibitor. The analysis of the data is performed by the calculation of the percentage of fluorescence in the presence of the test compound compared to the fluorescence of the vehicle control after subtracting the background fluorescence: An inhibitor of the neutrophil elastase enzyme will give values between 100% control (no inhibition) and 0% control (complete inhibition). The human plasma shift of selected compounds can be calculated using the following equation: Human plasma shift=(EC50 in human plasma assay)/(IC50 in human neutrophil elastase assay) The EC50 values of selected compounds in the human plasma assay described above are listed in Table 14.
# [4] = Assay for the Determination of Metabolic Stability with Human Liver Microsomes; assay type: in vitro ADME; details: pooled human liver microsomes, 37° C., NADPH
# Protocol: Assay for the Determination of Metabolic Stability with Human Liver Microsomes
# The metabolic degradation of the test compound is assayed at 37° C. with pooled human liver microsomes. The final incubation volume of […] per time point contains TRIS buffer pH 7.6 (0.1 M), magnesium chloride (5 mM), microsomal protein (1 mg/ml) and the test compound at a final concentration of […]. Following a short preincubation period at 37° C., the reactions are initiated by addition of beta-nicotinamide adenine dinucleotide phosphate, reduced form (NADPH, 1 mM) and terminated by transfering an aliquot into acetonitrile after different time points. Additionally, the NADPH-independent degradation is monitored in incubations without NADPH, terminated at the last time point. The rol remaining test compound after NADPH independent incubation is reflected by the parameter c(control) (metabolic stability). The quenched incubations are pelleted by centrifugation (10′000 g, 5 min) An aliquot of the supernatant is assayed by LC-MS/MS for the amount of parent compound.
# The half-life (t1/2 INVITRO) is determined by the slope of the semilogarithmic plot of the concentration-time profile. The intrinsic clearance (CL_[…]) is calculated by considering the amount of protein in the incubation: CL_[…][μl/min/mg protein]=(ln 2/(half-life [min]*protein content [mg/ml]))*1′000.
# The half-life (t1/2 INVITRO) values of selected compounds in the metabolic stability assay described above are listed in Table 15.
# [5] = target: Human neutrophil elastase (Homo sapiens (Human), UniProt P08246); test: Human Neutrophil Elastase Assay; assay type: biochemical; details: human neutrophil elastase, substrate MeOSuc-Ala-Ala-Pro-Val-AMC, pH 7.5; read-out: IC50
# Chain of Human neutrophil elastase (P08246 30-267): as above
# Protocol: Human Neutrophil Elastase Assay
# Materials: Human neutrophil elastase was purchased from Calbiochem (Cat.No.: 324681) and the elastase substrate MeOSuc-Ala-Ala-Pro-Val-AMC from Bachem (Cat.No.: I-1270). All other materials were of the highest grade commercially available.
# The following buffers were used: Compound buffer: 100 mM Tris, 500 mM NaCl, adjusted to pH 7.5; Assay buffer: 100 mM Tris, 500 mM NaCl, adjusted to pH 7.5, containing 0.01% BSA.
# Assay conditions: Test compounds were prediluted in DMSO and subsequently in compound buffer (5% DMSO final). 5 μL of these compound dilutions were mixed with 10 μl Neutrophil elastase (9 ng/ml in assay buffer) in a black 384 well OptiPlate (Perkin Elmer, Cat No.: 6007270) and incubated for 15 min at room temperature. Subsequently 10 μL substrate solution in assay buffer were added (250 nM final concentration) and the plates were incubated for 60 min at room temperature. After inactivation of the enzyme, fluorescence intensities were measured at 380 nm excitation and 460 nm emission wavelengths.
# Each plate contains wells with a high value control (DMSO+enzyme+substrate) and wells with a low value control (DMSO+inactivated enzyme+substrate). IC50 values were estimated using a sigmoidal concentration response curve with variable slope. Means of low values were taken as 0%, means of high values as 100%.
# [6] = Assay for Determination of Drug Transport Across Human CACO-2 Cells; assay type: in vitro ADME; details: human
# Excerpt: (§1) Assay for Determination of Drug Transport Across Human CACO-2 Cells
# (§2) The assay provides information on the potential of a compound to pass the cell membrane, on the extent of oral absorption as well as on whether the compound is actively transported by uptake and/or efflux transporters. For the measurement of permeability across polarized, confluent human cancer colon carcinoma cells 2 (Caco-2) cell monolayers grown on permeable filter supports are used as the in vitro absorption model. Apparent permeability coefficients (PE) of the compounds across the Caco-2 monolayers are measured (pH 7.2, 37° C.) in apical-to-basal (AB) (absorptive) and basal-to-apical (BA) (secretory) transport direction. AB permeability (PEAB) represents drug absorption from the intestine into the blood and BA permeability (PEBA) drug secretion from the blood back into the intestine via both passive permeability as well as active transport mechanisms mediated by efflux and uptake transporters that are expressed on the Caco-2 cells. The compounds are assigned to permeability/absorption classes by comparison of the AB permeabilities with the AB permeabilities of reference compounds with known in vitro permeability and oral absorption in the human. Identical or similar permeabilities in both transport directions indicate passive permeation, vectorial permeability points to additional active transport mechanisms. […] Active transport is concentration-dependently saturable.
# (§3) Caco-2 cells (1−2*10^5 cells/cm^2 area) are seeded on filter inserts (Costar transwell polycarbonate or PET filters, […] pore size) and cultured (DMEM) for 10 to 25 days. Compounds are dissolved in appropriate solvent (like DMSO, 1-20 mM stock solutions). Stock solutions are diluted with HTP-4 buffer (128.13 mM NaCl, 5.36 mM KCl, 1 mM MgSO4, 1.8 mM CaCl2, 4.17 mM NaHCO3, 1.19 mM Na2HPO4×7H2O, 0.41 mM NaH2PO4×H2O, 15 mM HEPES, 20 mM glucose, pH 7.2) to prepare the transport solutions (typically […] compound, final DMSO <=0.5%). The transport solution (TL) is applied to the apical or basolateral donor side for measuring A-B or B-A permeability (3 filter replicates), respectively. The receiver side contains HTP-4 buffer supplemented with 2% BSA. Samples are collected at the start and end of experiment from the donor and at various time intervals for up to 2 hours also from the receiver side for concentration measurement by LC-MS/MS or scintillation counting. Sampled receiver volumes are is replaced with fresh receiver solution.
# (§4) The apparent permeability coefficients (PEAB and PEBA) and efflux ratios (PEBA/PEAB) of selected compounds in the Caco-2 drug transport assay described above are listed in Table 17.
# Caco-2 cell monolayers = test: as above; assay type: in vitro ADME; details: for Efflux ratio: Caco-2, PEBA/PEAB; for PEAB: Caco-2, apical-to-basal; for PEAB / PEBA: pH 7.2, 37° C.; for PEBA: Caco-2, basal-to-apical
# Excerpt: as §1, §2, §3, §4
Structure (SMILES),CL (predicted human hepatic in vivo blood clearance) [1],Aqueous solubility [2],EC50 [3],t1/2 INVITRO [4],IC50 [5],"solubility at 24 h ([2]; McIlvaine buffer pH 6.8 with 2.5% DMSO, aqueous buffer, kinetic from dmso stock)","efflux ratio at 2 h, 10 nM ([6]; pH 7.2, Caco-2, PEBA/PEAB)","Papp A→B at 10 nM ([6]; Caco-2, apical-to-basal, pH 7.2, 37° C., read-out: PEAB)","Papp B→A at 10 nM ([6]; Caco-2, basal-to-apical, pH 7.2, 37° C., read-out: PEBA)","half-life at 1 nM ([4]; pH 7.6, read-out: t1/2 INVITRO)",Efflux ratio (Caco-2 cell monolayers),PEAB (Caco-2 cell monolayers),PEBA (Caco-2 cell monolayers)
CS(=O)(=O)c1cc(C#N)ccc1C1C2=C(CCCC2=O)N(c2cccc(C(F)(F)F)c2)C(=O)N1CCCO (stereo not shown) [Example 58.2],3 mL/min/kg,56 µg/mL,3 nM,>2.17 h,1.2 nM,,,,,,,,
"CN1C(=O)N(c2ccnc(C(F)(F)F)c2)C2=C(C(=O)CCC2)C1c1ccc(C#N)cc1S(C)(=O)=O (stereo not shown) [Example 64, 4-(3-Methyl-2,5-dioxo-1-(2-(trifluoromethyl)pyridin-4-yl)-1,2,3,4,5,6,7,8-octahydroquinazolin-4-yl)-3-(methylsulfonyl)benzonitrile]",0 mL/min/kg,,,,,8 µg/mL,4.4,17.1 ×10⁻⁶ cm/s,75.7 ×10⁻⁶ cm/s,> 2.17 h,,,
CS(=O)(=O)c1cc(C#N)ccc1[C@@H]1C2=C(CCCC2=O)N(c2cccc(C(F)(F)F)c2)C(=O)N1C(=O)NC1CCOCC1 [Example 75.16],0 mL/min/kg,66 µg/mL,1 nM,>2.17 h,< 1 nM,,,,,,,,

# Next, values leading:
CL (predicted human hepatic in vivo blood clearance) [1],Aqueous solubility [2],EC50 [3],t1/2 INVITRO [4],IC50 [5],"solubility at 24 h ([2]; McIlvaine buffer pH 6.8 with 2.5% DMSO, aqueous buffer, kinetic from dmso stock)","efflux ratio at 2 h, 10 nM ([6]; pH 7.2, Caco-2, PEBA/PEAB)","Papp A→B at 10 nM ([6]; Caco-2, apical-to-basal, pH 7.2, 37° C., read-out: PEAB)","Papp B→A at 10 nM ([6]; Caco-2, basal-to-apical, pH 7.2, 37° C., read-out: PEBA)","half-life at 1 nM ([4]; pH 7.6, read-out: t1/2 INVITRO)",Efflux ratio (Caco-2 cell monolayers),PEAB (Caco-2 cell monolayers),PEBA (Caco-2 cell monolayers),Structure (SMILES)
0 mL/min/kg,9 µg/mL,,>2.17 h,,,,,,,3.7,22.8 ×10⁻⁶ cm/s,85.3 ×10⁻⁶ cm/s,CC(C)NC(=O)N1C(=O)N(c2cccc(C(F)(F)F)c2)C2=C(C(=O)CCC2)[C@H]1c1ccc(C#N)cc1S(C)(=O)=O [Example 75.3]
0 mL/min/kg,905 µg/mL,,>2.17 h,,,,,,,10.8,8.4 ×10⁻⁶ cm/s,90.6 ×10⁻⁶ cm/s,CS(=O)(=O)c1cc(C#N)ccc1[C@@H]1C2=C(CCCC2=O)N(c2cccc(C(F)(F)F)c2)C(=O)N1C(=O)NCC(F)F [Example 75.7]
